Values of other authors in patent publication US20080299050A1, “TOPICAL THERAPIES FOR ORAL MUCOSITIS AND OTHER CONDITIONS” (DrugTech Corporation, priority 2006, published 2008).

Columns and labels:
[1] = test system: human slin fibroblast cultures
[2] = very large dose applied topically to a pressure ulcer
gingival wound = settings: by mouth for up to 8 weeks prior to gingival excision
gingiva = settings: administered systemically

Structure (SMILES) | cell proliferation (enhancing effect) ([1]; higher concentration (25 or 50 μg/ml) or longer incubation time (25 h or 48 h)) | cell proliferation ([1]; low concentration (5 μg/ml) and short incubation time (3 h)) | systemic absorption of phenyloin [2] | gingival wound healing (gingival wound) | side effect (gingiva)
O=C1NC(=O)C(c2ccccc2)(c2ccccc2)N1 [phenyloin, 5,5-diphenyl-2,4-imidazolidinedione] | reduced or reversed | enhanced | little systemic absorption | – | –
O=C1N=C([O-])NC1(c1ccccc1)c1ccccc1.[Na+] [phenyloin sodium] | – | – | – | greatly enhanced | gingival hyperplasia
